Laboratory results from patent US20240398980A1, “NUCLEIC ACID-CONJUGATED POLYMERIC NANOPARTICLES AND METHODS OF USE” (The Brigham and Women's Hospital, Inc., priority 2021, published 2024).
pEC50: −log10 of the molar value.

Columns and labels:
[1] = system: interferon regulatory factor (IRF)3 activity; assay: IRF3 reporter activity in THP-1 Dual cells (QUANTI-Luc); format: cell-based, Human; conditions: for IRF and NF-kB activation compared with 2.3cGAMP: THP-1 reporter cell line, FIG. 30
Description: (§1) In vitro evaluation of CDN-NP activity: Human monocyte THP-1 Dual™ cells, THP-1 Dual™ KO-STING cells, RAW-Lucia™ ISG cells and RAW-Lucia™ ISG KO-STING cells were seeded in 96-well plates at 1×10^5 cells per well and incubated with the CDN-NP or free CDN at CDN concentrations ranging from 0-500 nM. At 24 h post treatment, interferon regulatory factor (IRF)3 activity was examined using the QUANTI-Luc™ reagent (InvivoGen) and NF-κB activity (only THP-1 Dual™ cells) was determined using the QUANTI-Blue™ reagent (InvivoGen) according to the manufacturer's instructions.

IRF response = assay: IRF reporter response in RAW-Lucia ISG cells; format: cell-based, murine
Description: as §1

[2] = system: bone-marrow derived macrophages (BMDMs); assay: Primary immune cell activation, flow cytometry; format: cell-based, C57BL/6 mice
Description: BMDC and BMDM isolation: The tibias and femurs of female wild type or goldenticket C57BL/6 mice (aged 8-12 weeks) were isolated and flushed to harvest bone marrow and to obtain a progenitor cell population. To generate BMDMs, 4-6×10^6 bone marrow cells were cultured in non-tissue culture treated T175 flasks with 25 mL of DMEM/F12 supplemented with 10% (v/v) FBS, 1% (v/v) P/S, 5% (v/v) GlutaMAX and recombinant murine macrophage-colony-stimulating factor (M-CSF, 20 ng/mL). The flasks were supplemented with additional medium on day 3 and day 6. To generate BMDCs, 2×10^6 bone marrow cells were added to non-tissue culture-treated petri dishes and cultured in 10 mL of RPMI-1640 supplemented with 10% (v/v) FBS, 1% (v/v) and recombinant murine granulocyte-macrophage colony-stimulating factor (GM-CSF, 20 ng/mL), 10 mL more of which was added on day 3. […]
Assessment of primary immune cell activation: BMDCs or BMDMs were seeded in 24-well plates at 2×10^5 cells per well and incubated with the CDN-NP or free CDN at equal CDN concentrations ranging from 1-100 nM. […] After 24 hours, the supernatant was removed and cells were then collected, washed, stained, fixed, and analyzed by flow cytometry. […] In addition, IFN-0, IL-6, and TNF-α were analyzed from the supernatant using a custom Legendplex™ panel (BioLegend) as per the manufacturer's instructions.

[3] = Pharmacokinetics in plasma after i.v. administration (LC-MS-MS and fluorescence); format: in vivo, C57BL/6 mice; conditions: 15 min after i.v.
Description: Pharmacokinetics of CDN-NPs: Non-tumor bearing 6-8-week-old female C57BL/6 mice were injected i.v. (100 μL per mouse) with fluorescent CDN-NPs and whole blood was collected 0.25, 0.5, 1, 3, 6, and 24 h post injection in Eppendorf tubes containing heparin though submandibular bleed (for early time points) or cardiac puncture (for late time points). Plasma was obtained by centrifugation for 20 mins at 10000×g. Fluorescent CDN-NPs were quantified using a 640 nm excitation and 680 emission wavelength by plate reader and CDN was also quantified by LC-MS/MS.

B16-F10 tumors = assay: In vivo therapeutic efficacy, B16-F10 melanoma; set-up: species or system mice; conditions: B16-F10, 0.5 μg CDN i.v. x3, 4 d apart
Description: In vivo therapeutic efficacy: B16-F10, 4T1, and CT-26 cells were injected subcutaneously into the right flank of 6-8-week-old female mice (of the appropriate background for the cell type) in 100 μL HBSS at densities of 5×10^5, 1×10^6, and 1×10^6 cells/injection, respectively. Approximately 7 days post tumor inoculation (˜50 mm^3), mice were subjected to intravenous injection (100 μL) of free CDN or CDN-NP at a CDN dose of 0.5 μg. Mice were injected 3 times with treatments spaced 4 d apart. Groups receiving checkpoint blockade were injected intraperitoneally 24 h post systemic administration with 100 μg anti-PD-1 (clone RMP1.14, Bio X Cell). The tumor size was measured every other day via caliper measurements and the tumor volume calculated using the equation V=L×W×H×(π/6). Body weight was measured contemporaneously with tumor volume.

[4] = system: immune cell populations in the TME, tdLN, and spleen; assay: Immunophenotyping by flow cytometry in B16-F10 tumor-bearing mice; format: in vivo, C57BL6/J mice
Description: Immunophenotyping analysis: Subcutaneous B16-F10 tumors were established in female C57BL6/J mice (6-8 weeks old), as previously described. The treatment groups were: PBS (untreated control), aPD-1 mAb, free CDN, free CDN with aPD-1 mAb, CDN-NPs, and CDN NPs with aPD-1 mAb. CDN formulations (free drug or NP, 0.5 μg CDN) were administered intravenously and aPD-1 mAb (100 μg) was administered intraperitoneally 24 h after CDN treatment. Dendritic cells and macrophages were assessed 48 h after treatment and T cells were analyzed 7 days post-treatment. Tumors were harvested, chopped, and digested in a solution of HBSS supplemented with collagenase I, II, and IV (100 ng/mL) and DNase I […] for 2 h at 37° C. TdLNs and spleens were harvested and mechanically dissociated. Single cell suspensions of tumors, tdLNs, and spleens were filtered through a 40 µm nylon cell strainer. Spleen and tumor cells were further treated with ACK Lysing Buffer (Gibco). Cells were washed, filtered through a 40 μm nylon cell strainer, and counted. For intracellular IFN-γ cytokine analysis, 1×10^6 cells were seeded in a 24-well plate in DMEM containing 10% (v/v) FBS and supplemented with PMA/ionomycin/Brefeldin A cocktail (BioLegend). After 4 h, the cells were washed and stained in 100 μL cell staining buffer (BioLegend). Intracellular staining was performed using an intracellular staining permeabilization wash buffer (BioLegend) The following anti-mouse antibodies were used for flow cytometry were purchased from BioLegend: CD45 APC-Cy7 (clone 30-F11), NK-1.1 BV710 (clone PK136), IFN-γ BV421 (clone XMG1.2), CD279 (PD-1) FITC (clone 29F.1A12), CD45 BV785 (clone 30-F11), CD11b BV421 (clone M1/70), Ly-6C APC-Cy7 (clone HK1.4), Ly-6G BV661 (clone 1A8), CD8a BV421 (clone 53-6.7), CD86 BV510 (clone GL-1), CD80 BV711 (clone 16-10A1), CD206 PE (clone C068C2), MHCII BV605 (clone M5/114.15.2), CD11c APC (clone N418), Siglec H PE (clone 551), and CD44 BV786 (clone IM7).
The following anti-mouse antibodies were purchased from BD Biosciences: CD3 BB700 (clone 17A2), CD4 BUV395 (clone GK1.5), CD8a BUV737 (clone 53-6.7), F4/80 BUV395 (clone T45-2342), CD103 BUV395 (clone M290), CD80 BUV737 (clone 16-10A1), ki67 BV510 (clone B56), CD69 BV605 (clone H1.2F3), and CD62L PE-CF594 (clone MEL-14). Live cells were gated using LIVE/DEAD™ (Thermo Fisher) aqua (cat. no. L34966), green (cat. no. L34970), or near-IR (cat. no. L34976). Stained cells were analyzed by flow cytometry using a BD LSRFortessa™ flow cytometer (BD Biosciences) and all data were analyzed using FlowJo software (FlowJo LLC).

[5] = tdLN, 7 d after single treatment

Structure (SMILES): Nc1nc2c(ncn2[C@@H]2O[C@@H]3CO[P@@](=O)(S)O[C@H]4C[C@H](Oc5ccncn5)C[C@@H]4CO[P@@](=O)(S)O[C@@H]2[C@@H]3O)c(=O)[nH]1 [free CDN, 2-Amino-9-[(2R,5R,7R,8R,10R,12aR,14R,15aS,16R)-16-hydroxy-2,10-dioxido 14-(pyrimidin-4-yloxy)-2,10-disulfanyldecahydro-5,8 methanocyclopenta[1][1,3,6,9,11,2,10]pentaoxadiphosphacyclotetradecin-7-yl]-1,9-dihydro-6H-purin-6-one]
- pEC50 ([1]; THP-1 Dual cells, 24 h, read-out: EC50 IRF3 activation): 5.94
- IRF and NF-kB activation compared with 2.3cGAMP [1]: higher IRF and NF-kB activation than 2.3cGAMP
- pEC50 (IRF response): < 6.00
- dose required to achieve the same degree of CD86 upregulation (15-fold) [2]: 100 nM
- CDN (nM) in plasma [3]: <5 nM
- CDN (nM) in plasma ([3]; listed as free CDNs): < 5 nM
- tumor growth and survival (B16-F10 tumors): only a modest suppression of tumor growth and no increase in survival
- CD86 expression on DCs in the spleen ([4]; 48 h after i.v., B16-F10): 8.4±1.3%
- proportion of CD4+ T cells secreting IFN-γ in the TME ([4]; 7 d, ex vivo restimulation): 4.0±1.0%
- proportion of CD8+ T cells secreting IFN-γ in the TME ([4]; 7 d, ex vivo restimulation): 15.7±3.5%
- CD4+ central memory T cells (TCM) [4, 5]: 6.2±0.4%
- CD4+ effector memory T cells (TEM) [4, 5]: 5.3±0.8%

Structure (SMILES): CC(C)[C@H](NC(=O)CCCCCN1C(=O)C=CC1=O)C(=O)N[C@@H](C)C(=O)Nc1ccc(COC(=O)N(C)Cc2ccccc2C(=O)Nc2nc3c(ncn3[C@@H]3O[C@@H]4CO[P@@](=O)(S)O[C@H]5C[C@H](Oc6ccncn6)C[C@@H]5CO[P@@](=O)(S)O[C@@H]3[C@@H]4O)c(=O)[nH]2)cc1 [CDN-linker, 4-{[(2S)-2-{[(2S)-2-{[6-(2,5-Dioxo-2,5-dihydro-1H-pyrrol-1 yl)hexanoyl]amino}-3-methylbutanoyl]amino}propanoyl]amino}benzyl [2-({9[(2R,5R,7R,8R,10R,12aR,14R,15aS,16R)-16-hydroxy-2,10-dioxido-14-(pyrimidin-4-yloxy)-2,10-disulfanyldecahydro-5,8-methanocyclopenta[1][1,3,6,9,11,2,10]Pentaoxadiphosphacyclotetradecin-7-yl]-6-oxo-6,9-dihydro-1H-purin-2-yl}carbamoyl)benzyl]methylcarbamate]
- IRF and NF-kB activation compared with 2.3cGAMP [1]: higher IRF and NF-kB activation than 2.3cGAMP
